Results published in patent US7488832B2, “Azolylacylguanidines as β-secretase inhibitors” (Wyeth, priority 2005, dated 2009).

Biological target: human BACE1 (Homo sapiens, UniProt P56817)
Experiment: Fluorescent kinetic assay, human BACE1 (FRET peptide substrate WABC-6);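 note: fluorescence monitored at excitation 320 nm and emission 420 nm over 30 min, with the substrate cleavage rate taken as the linear slope of the signal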
Assay type: biochemical
Settings: fluorescent kinetic assay, 25 μM substrate WABC-6, pH 4.5, room temperature; read-out: IC50 (μM) BACE 1

Chain of human BACE1 (P56817 46-501): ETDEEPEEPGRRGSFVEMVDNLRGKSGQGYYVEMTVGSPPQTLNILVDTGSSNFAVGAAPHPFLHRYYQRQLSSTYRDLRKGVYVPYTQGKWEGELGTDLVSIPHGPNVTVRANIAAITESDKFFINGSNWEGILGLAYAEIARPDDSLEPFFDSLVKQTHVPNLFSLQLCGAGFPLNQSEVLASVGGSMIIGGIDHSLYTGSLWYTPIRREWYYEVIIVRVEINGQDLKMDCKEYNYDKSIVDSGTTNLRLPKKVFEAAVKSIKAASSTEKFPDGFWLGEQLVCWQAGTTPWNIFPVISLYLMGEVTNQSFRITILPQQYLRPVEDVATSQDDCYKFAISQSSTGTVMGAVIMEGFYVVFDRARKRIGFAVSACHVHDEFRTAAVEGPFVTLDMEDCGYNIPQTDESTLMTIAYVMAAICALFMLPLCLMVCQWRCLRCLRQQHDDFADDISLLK

| SMILES | IC50 [µM] |
| --- | --- |
| NC(=NC(=O)Cn1c(-c2ccccc2)ccc1-c1ccc(-c2ccccc2)cc1)NCCCO [Example 325] | 0.11 to 1 |
| N=C(NCC(O)CO)NC(=O)Cn1c(-c2ccccc2)ccc1C12CC3CC(CC(C3)C1)C2 (stereo not shown) [Example 406] | 0.11 to 1 |
| CCS(=O)(=O)N/C(N)=N\C(=O)Cn1c(-c2ccccc2)ccc1C12CC3CC(CC(C3)C1)C2 [Example 431, 2-[2-(1-adamantyl)-5-phenyl-1H-pyrrol-1-yl]-N-{(1Z)-amino[(ethyl-sulfonyl)amino]methylene}acetamide] | 0.11 to 1 |
| C=CCCCOc1ccc(-c2ccc(-c3ccccc3Cl)n2CC(=O)NC(=N)NCCCO)cc1 [Example 313] | 0.11 to 1 |
| CCCCOc1ccc(-c2ccc(-c3ccccc3)n2CC(=O)N=C(N)NCCCO)cc1 [Example 324] | 0.11 to 1 |
| CCCCc1ccc(-c2ccc(-c3ccccc3)n2CC(=O)NC(=N)N)cc1 [Example 449] | 0.11 to 1 |
| CC(=O)OCCNC(N)=NC(=O)Cn1c(-c2ccccc2)ccc1C12CC3CC(CC(C3)C1)C2 [Example 394] | 0.11 to 1 |
| N#CCCc1ccc(-c2ccc(-c3ccccc3)n2CC(=O)NC(=N)N)cc1 [Example 454] | 1.1 to 5 |

Now from value to molecule:

| IC50 [µM] | SMILES |
| --- | --- |
| 0.11 to 1 | CCNC(=O)c1ccc(-c2ccc(-c3ccccc3)n2CC(=O)NC(N)=NCCCO)cc1 [Example 461, N-Ethyl-4-(1-{2-[N′-(3-hydroxy-propyl)-guanidino]-2-oxo-ethyl}-5-phenyl-1H-pyrrol-2-yl)-benzamide] |
| 1.1 to 5 | N#CCCCNC(=N)NC(=O)Cn1c(-c2ccccc2)ccc1C1CCCCC1 [Example 474, N-(3-Cyano-propyl)-N′-[2-(2-cyclohexyl-5-phenyl-pyrrol-1-yl)-acetyl]-guanidine] |
| 0.11 to 1 | N#CCCNC(=O)c1ccc(-c2ccc(-c3ccccc3)n2CC(=O)N=C(N)NCCCO)cc1 [Example 465] |

Tested on: not given
Experiment: not given
Settings: not given

| SMILES | melting point [°C] |
| --- | --- |
| N=C(N)NC(=O)Cn1c(Cc2ccccc2)ccc1-c1ccccc1 [Example 458, N-[(2-benzyl-5-phenyl-1H-pyrrol-1-yl)acetyl]guanidine] | 155 to 158 |
| N=C(N)NC(=O)Cn1c(C(=O)c2ccco2)ccc1-c1ccccc1 [Example 456] | 175 to 177 |
| NC(N)=NC(=O)Cn1c(C(=O)c2ccccc2)ccc1-c1ccccc1 [Example 455, N″-[(2-benzoyl-5-phenyl-1H-pyrrol-1-yl)acetyl]guanidine] | 201 to 203 |

Second part, the molecule after the results:

| melting point [°C] | SMILES |
| --- | --- |
| 80 to 82 | N=C(N)NC(=O)Cn1c(Cc2ccco2)ccc1-c1ccccc1 [Example 459, N-[amino(imino)methyl]-2-[2-(2-furylmethyl)-5-phenyl-1H-pyrrol-1-yl]acetamide] |
| 99 to 120 | N=C(N)NC(=O)Cn1c(Cc2cccs2)ccc1-c1ccccc1 [Example 460, N-[amino(imino)methyl]-2-[2-phenyl-5-(thien-2-ylmethyl)-1H-pyrrol-1-yl]acetamide] |
